Measured values: patent US20220249591A1, “COMPOSITION FOR THE TREATMENT OF EMOTIONAL DISORDERS” (priority 2019, published 2022)
Marks after values point to notes of the source that are not given here.

Columns and labels:
Type in all cases: in vivo
[1] = tested on: 6-month-old stressed mice (UCMS); assay: Open field test (anxiety behavior) in UCMS-stressed mice; conditions: induced model (UCMS) mice, n = 12, after 21 days of daily oral gastric intubation (glutamine 24 mg, curcuma extract 1.2 mg, L. rhamnosus GG 0.120 mg per mouse); clomipramine 10 mg/kg intraperitoneal; 5 min session
Procedure: The solutions were administered orally by gastric intubation to mice (1 tube-feed per day).
The preparation of the solutions is performed extemporaneously and the administration is performed in the morning. During the behavioral sessions, the solutions are administered one hour before the start of the session. The gastric incubation always takes place in a different room from the one in which the behavioral test is performed.
In order to evaluate the results obtained with the solutions, one group of mice received a parenteral administration of a tricyclic antidepressant (clomipramine). The mice were divided into independent groups according to the following treatments:
For each group, the administration of the various solutions lasts 21 consecutive days (3 weeks). The behavioral tests are performed 4 weeks after induction of the model (“elevated plus maze” and “tail suspension”) and 3 weeks after the daily intubations (“open field” and “forced swim”).
The open field test is a circular arena (ø 1 m) surrounded by an opaque wall 25 cm tall placed in a room with uniform lighting of 70 lux. The mice are placed facing the wall at the periphery of the arena and can explore freely for 5 minutes. The area of the open field is practically divided into a peripheral zone (12 cm wide) and a central zone (the remaining area of the arena). The time (in seconds) spent in the central zone is automatically noted by videotracking. The more time a mouse spends in the central zone, the less anxious it is.
The anxiety behavior was evaluated by means of the open field test. The mean time spent by the mice at the center of the apparatus is measured.

[2] = tested on: 6-month-old stressed mice (UCMS); assay: Forced swim test (Porsolt; depressive behavior) in UCMS-stressed mice
Procedure: The solutions were administered orally by gastric intubation to mice (1 tube-feed per day). The preparation of the solutions is performed extemporaneously and the administration is performed in the morning. During the behavioral sessions, the solutions are administered one hour before the start of the session. The gastric incubation always takes place in a different room from the one in which the behavioral test is performed. […] The mice were divided into independent groups according to the following treatments: For each group, the administration of the various solutions lasts 21 consecutive days (3 weeks). The behavioral tests are performed 4 weeks after induction of the model (“elevated plus maze” and “tail suspension”) and 3 weeks after the daily intubations (“open field” and “forced swim”). The forced swim test (Porsolt) is a test commonly used for evaluating depressive behavior in mice. This test is based on behavioral despair. […] An animal displaying depressive behaviour will spend more time immobile than the non-depressive control mouse. After the session, the animal is dried and placed under warm light. Three parameters for evaluating the depressive behaviour are noted: the time spent swimming, the time spent climbing and the time spent immobile for each animal and also their respective percentage.

[3] = tested on: intestinal microbiota of the stressed mice; assay: Composition of the fecal microbiota by analysis of the 16S rRNA; conditions: before vs after treatment, relative to placebo group
Procedure: The composition of the microbiota of the animals was analyzed in order to determine the influence of the formula on the bacterial composition of the fecal microbiota of the stressed mice and to compare it with the influence of the drug or of the placebo.
The animals' feces were sampled in order for a DNA extraction to be performed (Zymo Research based kits). The V3-V4 regions of the 16S rRNA gene are amplified and sequencing is performed on an ILLUMINA MiSeq system using the 2*250 bp mode. Sequence analysis is performed after correction using SPAdes ([…]) and regrouping is performed using PEAR (Zhang J. et al. Bioinformatics 2014; 30(5): 614-20). The OTUs (Operational Taxonomic Units) are identified with the Vsearch tool (Rognes T. et al. Peer J., 2016; 4: e2584), the taxonomic classification arising therefrom was performed by means of the RDP (Ribosomal Database Project) database.
The majority of the diversity studies based on 16S rDNA define the OTUs as being sets of sequences having at least 97% identity with each other. The OTUs are, in point of fact, the unit for measuring the specific richness in microbial ecology.
The statistical analyses were performed using the R program (Team RDC. R: A Language and Environment for Statistical Computing. 2012, Austria: R Foundation for Statistical Computing) and various packets (Ade4, Vegan). […]

[4] = induced model (UCMS) mice, n = 12, after 21 days of daily oral gastric intubation, clomipramine 10 mg/kg intraperitoneal, 6 min session

NC(=O)CC[C@H](N)C(=O)O [Glutamine]
Open field test Mean (seconds): time spent in the central zone [1]: 42.9 s

CN(C)CCCN1c2ccccc2CCc2ccc(Cl)cc21 [Clomipramine, reference compound]
Open field test Mean (seconds): time spent in the central zone [1]: 56.8 s
Forced swim test swimming time, effect in words ([2]; compared with the other groups, 21 days treatment): spending more time swimming when compared with the other groups
Beta-diversity of the intestinal microbiota (PCoA), change of microbiotal profile, in words [3]: would stabilize the dysbiosis induced by the 4 weeks of stress relative to the placebo group

Lactobacillus rhamnosus GG
Open field test Mean (seconds): time spent in the central zone [1]: 41.6 s
Forced swim test Climbing (dry) [2, 4]: 113.5* s
Forced swim test Immobility (dry) [2, 4]: 106.8* s
Forced swim test Swimming (dry) [2, 4]: 139.8 s
